How the values were obtained:
HRECs [1] = assay: Intracellular Ca2+ levels (Fluo4-AM, confocal) in HRECs; assay type: cell-based, human; conditions: 10 ng/ml VEGF, inhibitors 30 min
Description: Cells on coverslips were co-incubated with 2 μM Fluo4-AM and various inhibitors for 30 min at 37° C. Coverslips were scanned every 10 sec in the presence of 10 ng/ml VEGF using a confocal microscope (FV-300, Olympus Tokyo, Japan). Single-cell fluorescence intensities of peaks were determined for 10 randomly selected cells per trial.

HRECs [2] = assay: Intracellular ROS generation (H2DCFDA, confocal) in HRECs; assay type: cell-based, human; conditions: 10 ng/ml VEGF, inhibitors pretreated 30 min
Description: Intracellular ROS generation was determined using 2′,7′-dichlorodihydrofluorescein diacetate (H2DCFDA, Molecular Probes, Eugene, Oreg.) staining as previously described. Cells were pretreated with inhibitors for 30 min and co-incubated with 10 ng/ml of VEGF and 10 μM H2DCFDA in low-serum media (phenol red-free) for 10 min. Labeled cells were immediately analyzed using confocal microscopy (Fluoview-300, Olympus). Single-cell fluorescence intensities were determined for 10 randomly selected cells per test. Intracellular ROS levels were determined by comparing average fluorescence intensities of treated cells with those of control cells (expressed as multiples thereof). […] Intracellular Ca^2+ and ROS levels were determined by confocal microscopy as described in Research Design and Methods. Results are expressed as mean±SD from three independent trials (***p<0.001).

TGase2 [3] = molecular target: T1, TGase2 (Homo sapiens, UniProt P21980); assay: In-situ TGase activity by confocal microscopy in VEGF-treated HRECs; assay type: cell-based; set-up: endogenous in cells; host or cells: human retinal endothelial cells (HRECs); conditions: 10 ng/ml VEGF 2 hrs, 50 μM cystamine, 20 μM MDC, 5 μM BAPTA-AM, 1 mM NAC, 0.5 μM Trolox, p<0.001
T1 sequence (P21980 1-687): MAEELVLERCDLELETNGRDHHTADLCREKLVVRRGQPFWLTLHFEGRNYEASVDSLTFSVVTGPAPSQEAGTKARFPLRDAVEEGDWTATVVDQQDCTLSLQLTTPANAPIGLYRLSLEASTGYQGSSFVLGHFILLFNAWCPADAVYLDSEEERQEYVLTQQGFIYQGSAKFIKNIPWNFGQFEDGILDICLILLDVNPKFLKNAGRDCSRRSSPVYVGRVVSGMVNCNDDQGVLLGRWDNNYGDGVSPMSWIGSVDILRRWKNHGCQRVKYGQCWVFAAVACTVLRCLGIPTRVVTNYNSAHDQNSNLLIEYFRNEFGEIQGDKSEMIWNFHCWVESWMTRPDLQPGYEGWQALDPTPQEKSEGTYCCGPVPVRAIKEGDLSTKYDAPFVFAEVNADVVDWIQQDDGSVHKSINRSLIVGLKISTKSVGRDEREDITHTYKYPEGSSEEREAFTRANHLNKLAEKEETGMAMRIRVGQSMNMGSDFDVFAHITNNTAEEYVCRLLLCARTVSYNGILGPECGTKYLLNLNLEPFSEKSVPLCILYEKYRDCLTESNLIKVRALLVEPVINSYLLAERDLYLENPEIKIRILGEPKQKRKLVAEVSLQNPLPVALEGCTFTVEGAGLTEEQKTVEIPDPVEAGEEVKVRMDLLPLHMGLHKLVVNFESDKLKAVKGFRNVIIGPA
Description: HUVEC isolation was done by our own supply and Human retinal endothelial cells (HRECs) were purchased from the Applied Cell Biology Research Institute (Cell Systems, Kirkland, Wash.). Both respectively were grown on 2% gelatin-coated plates in a M199 medium supplemented with 20% fetal bovine serum (FBS), 3 ng/ml basic fibroblastic growth factor, 5 units/ml heparin, 100 units/ml penicillin, and 100 μg/ml streptomycin. For experiments, cells were incubated for 6 hrs in a low-serum medium supplemented with 1% FBS and antibiotics.
In-situ Tgase transamidating activity was determined via confocal microscopic assay according to a previously known procedure. In brief, cells were incubated with 1 mM 5-(biotinamido)pentylamine (BAPA) for 1 hr at 37° C., fixed with 3.7% formaldehyde in PBS for 30 min, and permeabilized with 0.2% Triton X-100 in PBS for 30 min. After incubation with a blocking solution of 2% BSA in 20 mM Tris (pH 7.6), 138 mM NaCl, and 0.1% Tween 20 for 30 min, cells were treated with Cy3-conjugated streptavidin (1:200, v/v) in the blocking solution for 1 hr. Single-cell fluorescence intensities of stained cells were determined using confocal microscopy for 10 randomly selected cells per test. TGase activities were determined by comparing average fluorescence intensities of treated cells with those of control cells (expressed as multiples thereof).
HRECs were transfected with human TGase2-specific siRNA as described previously. In brief, cells were transfected with various concentrations of human TGase2-siRNA or 100 nM control siRNA (Dharmacon, Lafayette, Colo.) using siLentFect lipid reagent (Bio-Rad Laboratories, Hercules, Calif.) according to the manufacturer's instructions. Six hours after transfection with the indicated concentrations, the medium was replaced with a fresh culture medium and the transfected cells were further incubated for 24 hrs.
A detailed description of FIGS. 1A-1F are given below. […] (A, B) HRECs were incubated with 10 ng/ml VEGF for the indicated times (A) or for 2 hrs (B) in the presence of TGase inhibitors (50 μM cystamine and 20 μM MDC), 5 μM Ca^2+ chelator BAPTA-AM, or ROS scavengers (1 mM NAC or 0.5 μM Trolox). In-situ TGase activity was determined by confocal microscopy as described in Research Design and Methods (A: Time course changes in VEGF-induced transglutaminase activation; and B: Effects of various inhibitors on VEGF-induced transglutaminase activation). (C,D) HRECs were transfected with the indicated concentrations (C) or 100 nM (D) of human TGase2-specific siRNA (TGase2 siRNA) or 100 nM control (Ctrl) siRNA. Endothelial cells were treated with 10 ng/ml VEGF and subjected to confocal microscopic determination of in-situ TGase activity (C: Dose-dependent inhibition of TGase2 expression by TGase2 siRNA, TGase2 expression being analyzed by Western blot; and D: TGase2 siRNA prevention of VEGF-induced transglutaminase activation). FIGS. 1E and 1F show the effects of various inhibitors on the elevation of intracellular Ca^2+ (E) and ROS (F). Intracellular Ca^2+ and ROS levels were determined by confocal microscopy as described in Research Design and Methods. Results are expressed as mean±SD from three independent trials (***p<0.001).

HRECs [4] = assay: Visualization of actin filaments (stress fiber formation) in HRECs; assay type: cell-based, human; conditions: summary statement, conditions not given
Description: (§1) Actin filaments and VE-cadherin were visualized as previously described. For visualization of actin filaments, cells were treated with 10 ng/ml VEGF for 1 hr at 37° C., fixed with 3.7% formaldehyde, and permeabilized with 0.2% Triton X-100. […] For visualization of VE-cadherin, cells were preincubated with the TGase2 inhibitors for 30 min and treated with 10 ng/ml VEGF for 90 min at 37° C. Following fixation and permeabilization, cells were incubated overnight with a monoclonal anti-VE-cadherin antibody (1:200, Santa Cruz Biotechnology) at 4° C. Cells were then probed with an FITC-conjugated goat anti-mouse antibody (1:200, Sigma) and VE-cadherin was visualized using confocal microscopy. Adherens junctions are represented by histograms of VE-cadherin as indicated by dotted lines and were quantitatively analyzed using peak fluorescence intensities of the histograms at the single-cell level for 10 randomly selected cells per experiment.
(§2) (A-C) HRECs were preincubated with 50 μM cystamine (Cys) and 20 μM MDC for 30 min and treated with 10 ng/ml VEGF. Stress fibers and VE-cadherin were stained and visualized by confocal microscopy as described in Research Design and Methods (n=3) ((A) Representative images of stress fibers. Scale Bar, 30 μm. (B) Representative images of VE-cadherin. Scale Bar, 10 μm). Adherens junctions are represented by histograms of VE-cadherin as indicated by dotted lines. (C) Adherens junctions were quantitatively analyzed using the peak fluorescence intensities of the histograms at the single-cell level. The results are expressed as mean±SD from three independent trials. (D) In-vitro endothelial cell monolayer permeability assay. HRECs on inserts of Transwell® Permeable Supports were incubated with 50 μM cystamine and 20 μM MDC for 30 min and treated with 10 ng/mL VEGF for 90 min. The amount of FITC-dextran that diffused to the lower chamber was measured by a microplate spectrofluorometer (n=3) (**p<0.01).
(§3) HRECs were transfected with 100 nM human TGase2-specific siRNA (TGase2 siRNA) or 100 nM control (Ctrl) siRNA. Endothelial cells were treated with 10 ng/ml VEGF and subjected to the confocal microscopic visualization of stress fibers (A) and VE-cadherin (B), as described in Research Design and Methods (n=3). (A) TGase2 siRNA inhibition of VEGF-induced formation of stress fibers. Scale bar, 30 μm. (B) Representative images of VE-cadherin and adherens junctions represented by VE-cadherin histograms. Scale bar, 10 μm. (C) Adherens junctions were quantitatively analyzed using peak fluorescence intensities of the histograms at the single-cell level. Results are expressed as mean±SD from three independent experiments (***p<0.001).

VE-cadherin = assay: Visualization of VE-cadherin (adherens junction disruption) in HRECs; assay type: cell-based, human; conditions: summary statement, conditions not given
Description: as §1, §2, §3

TGase2 [5] = molecular target: T2, TGase2 (Mus musculus, UniProt P21981); assay: In-vivo TGase activity in retina of streptozotocin-diabetic mice; conditions: diabetic mice, intravitreal 2 μl: 50 mM cystamine, 20 mM MDC, 1 μM C-peptide, 2 μM Trolox, 500 mM NAC; after 24 hrs; n=8
T2 construct: from tissue; host or cells: retina of streptozotocin-diabetic C57BL/6 mice
T2 sequence (P21981 1-686): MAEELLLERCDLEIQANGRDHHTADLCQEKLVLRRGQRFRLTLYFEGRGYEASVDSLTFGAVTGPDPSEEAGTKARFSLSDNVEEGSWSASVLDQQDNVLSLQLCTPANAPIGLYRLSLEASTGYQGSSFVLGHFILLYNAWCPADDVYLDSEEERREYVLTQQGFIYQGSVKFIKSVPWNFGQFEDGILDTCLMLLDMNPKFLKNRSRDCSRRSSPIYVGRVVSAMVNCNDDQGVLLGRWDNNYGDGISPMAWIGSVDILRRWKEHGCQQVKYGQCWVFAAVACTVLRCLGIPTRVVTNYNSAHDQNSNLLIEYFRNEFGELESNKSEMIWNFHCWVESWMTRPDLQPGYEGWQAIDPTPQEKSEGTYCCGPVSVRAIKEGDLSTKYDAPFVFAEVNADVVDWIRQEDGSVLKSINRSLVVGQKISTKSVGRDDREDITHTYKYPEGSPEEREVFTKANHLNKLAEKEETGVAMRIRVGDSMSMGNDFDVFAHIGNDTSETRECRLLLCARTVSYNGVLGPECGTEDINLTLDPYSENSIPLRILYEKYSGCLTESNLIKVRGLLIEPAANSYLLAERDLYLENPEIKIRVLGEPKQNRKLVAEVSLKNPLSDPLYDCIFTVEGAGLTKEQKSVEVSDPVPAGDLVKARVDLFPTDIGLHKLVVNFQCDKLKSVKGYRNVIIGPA
Description: Two weeks after streptozotocin injection, diabetic mice were intravitreally injected with 2 μl of TGase inhibitors (50 mM cystamine or 20 mM MDC), 1 μM C-peptide (American Peptide Company, Sunnyvale, Calif.), ROS scavengers (2 μM Trolox or 500 mM NAC), or 65 μM mouse TG2-specific siRNA (Dharmacon, Lafayette, Colo.) into one eye and an equal volume of PBS or mouse control siRNA (Dharmacon, Lafayette, Colo.) into the contralateral eye. Non-diabetic mice were also intravitreally injected with 2 μl of PBS or mouse control siRNA into the eyes. After 24 hrs for inhibitors or C-peptide or 48 hrs for mouse TGase2 siRNA, mice were subjected to measurement of in-vivo TGase activity and vascular leakage from the retina.
In vivo Tgase transamidating activity was determined in mouse retina using confocal microscopy (FIG. 5A). 24 hrs after intravitreal injection of TGase2 inhibitors and C-peptide or 48 h after the injection of mouse TGase2-specific siRNA, mice were deeply anaesthetized using 2.5% avertin and 48 μl of 100 mM BAPA was injected into the left ventricle. BAPA was allowed to circulate for 10 min and mice were sacrificed by cervical dislocation. Eyes were then enucleated and immediately fixed with 4% paraformaldehyde for 45 min. Retinas were dissected in the Maltese cross-configuration and permeabilized with 0.2% Triton X-100 in PBS for 30 min at RT. After incubation with the blocking solution for 30 min, retinas were treated with FITC-conjugated streptavidin (1:200, v/v) in the blocking solution for 1 hr at RT. The superficial vessels of stained retinas (n=8 per group) were observed using confocal microscopy and fluorescence intensities were analyzed using Fluoview software (FV-300). In-vivo TGase activities were quantitatively determined using fluorescence intensities in the retinas of normal and diabetic mice.
Six-week-old male C57BL/6 mice were obtained from KOATECH (Pyeongtaek, Korea). TGase2^−/− mice (C57BL/6) were prepared by disrupting exons 5 and 6 of TGase2 by homologous recombination, as previously described. Diabetic mice were generated by a single intraperitoneal injection of streptozotocin (150 mg/kg body weight, Sigma) freshly prepared in 100 mM citrate buffer (pH 4.5) as previously described. Mice with non-fasting blood glucose levels greater than 19 mM, polyuria and glucosuria were considered diabetic. Experiments were performed in strict accordance with the guidelines of the Institutional Animal Care and Use Ethics Committee of Kangwon National University.
To validate the in-vitro findings, the present inventors further investigated the role of TGase2 in hyperglycemia-induced vascular leakage in the retina of diabetic mice. For this study, the present inventors designed an in-vivo TGase activity assay using confocal microscopy in mouse retina (FIG. 5A). In this assay, BAPA, which is a TGase2 pseudo substrate, was systemically delivered into the blood circulatory system by injection into the left ventricles of mice, and biotinylated proteins in the retinas were probed with FITC-conjugated streptavidin.
(A) A schematic diagram for determining TGase2 activity in mouse retina. (B,C) Streptozotocin-induced diabetic mice were intravitreally injected with 2 μl cystamine (diabetic+Cys), MDC (diabetic+MDC), C-peptide (diabetic+C-pep), Trolox (diabetic+Trolox) or NAC (diabetic+NAC) into one eye and an equal volume of PBS into the contralateral eye (diabetic). Non-diabetic mice were also intravitreally injected with 2 μl PBS into both eyes (normal). TGase2 activities in retinas were visualized by confocal microscopy and quantitatively determined as described in Research Design and Methods (n=8 per group). (B) Representative TGase activity images in the retinas. […] Scale bar, […]. (C) In-vivo TGase activities were quantified by measuring the fluorescence intensity in retinas (***p<0.001). […]

VEGF-induced TGase activation (in-situ TGase activity) (TGase2 [3])	hyperglycemia-induced TGase2 activation in diabetic retina (in-vivo TGase activity) (TGase2 [5])	Compound	VEGF-elevated intracellular Ca2+ levels (HRECs [1])	VEGF-induced intracellular ROS generation (HRECs [2])	VEGF-induced stress fiber formation (HRECs [4])	VEGF-induced VE-cadherin disruption (VE-cadherin)
inhibited	–	CC(=O)OCOC(=O)CN(CC(=O)OCOC(C)=O)c1ccccc1OCCOc1ccccc1N(CC(=O)OCOC(C)=O)CC(=O)OCOC(C)=O [BAPTA-AM]	inhibited	significantly inhibited	–	–
inhibited	–	CC(=O)N[C@@H](CS)C(=O)O [NAC, N-acetyl cysteine]	–	–	–	–
–	–	NCCO [ethanolamine]	–	–	prevented	prevented
–	blocked	C-peptide: 31-amino acid peptide, EAEDLQVGQVELGGGPGAGSLQPLALEGSLQ (SEQ ID NO. 2), co-secreted with insulin by pancreatic β cells (listed as Homo sapiens)	–	–	prevented	prevented

Reference: patent US10155948B2, “Pharmaceutical composition for preventing or treating diabetic complications and screening method for preventive or therapeutic agent for diabetic complications” (KANGWON NATIONAL UNIVERSITY UNIVERSITY-INDUSTRY COOPERATION …, priority 2016, dated 2018)
